Measured values reported in patent US11141490B2, “Antibody-drug conjugates based on gold compounds” (Research Foundation of the City University of New York, priority 2018, dated 2021).
“And” between values parts separate entries of the source, which are not always exact repeats. Equal values may be shown once.

Assays:
[1] = humans, rheumatoid arthritis medication; cited from earlier work
[2] = DMSO solution at room temperature; cited from earlier work
[3] = tested on: MCF-7 cells; experiment: Cell viability assay (PrestoBlue), MCF-7; format: cell-based, human; conditions: MCF-7, 72 h
Protocol: (§1) Cell viability assays were carried out to investigate the anti-proliferative effect of the AGCs. […] Auranofin was used for comparative purposes. […] Cells were incubated with the compounds for 72 hours and viability was assessed with Presto Blue. […] As mentioned before, linkers bring considerable advantages in terms of ADC stability.
(§2) Cell viability analysis for all compounds and AGCs described.
(§3) MCF7, MCF10A and BT-474 were obtained from the American Type Culture Collection (ATCC) (Manassas, Va.) and cultured in Dulbecco's modified Eagle's medium (DMEM) (Mediatech) supplemented with 10% FBS, 1% NEAA and 1% penicillin-streptomycin (MCF7 AND MCF1 OA) or DME HG/F12K, NEAA, 2 mM glutamine, 10% FBS/PS and incubated at 37° C. and 5% CO2 in a humidified incubator.
(§4) After 72 h, cell viability was determined by means of the colorimetric cell viability assay PrestoBlue (Invitrogen, Carlsbad, Calif.) according to the manufacturer's intructions. EC50 were fit using GraphPad Prism 7 to best match the experimental data.
(§5) Tables 3 and Table 4 show EC50 Values (μM) in MCF7, MCF10A and BT474 cell lines determined with [AuCl(PPh3)] (DMF), [Au(mba)(PPh3)]

[4] = tested on: MCF-10A cells; experiment: Cell viability assay (PrestoBlue), MCF-10A; format: cell-based, human; conditions: MCF-10A non-cancerous breast cell line, 72 h
Protocol: as §1, §2, §3, §4, §5

[5] = tested on: BT-474 cells; experiment: Cell viability assay (PrestoBlue), BT-474; format: cell-based, human; conditions: BT-474, 72 h
Protocol: as §1, §2, §3, §4, §5

Molecule | patients affected by most severe side effects (diarrhea and rashes) [1] | time stable in solution [2] [h] | EC50 [3] | EC50 [4] [µM] | EC50 [5] [µM]
CC[P](CC)(CC)=[Au][S][C@@H]1O[C@H](COC(C)=O)[C@@H](OC(C)=O)[C@H](OC(C)=O)[C@H]1OC(C)=O [AF, [(2R,3R,4S,5R,6S)-3,4,5-tris(acetyloxy)-6-{[(triethyl-λ5-phosphanylidene)aurio]sulfanyl}-oxan-2-yl]methyl acetate] | 26-40% | > 72 | – | – | –
[Cl][Au].c1ccc(P(c2ccccc2)c2ccccc2)cc1 [[AuCl(PPh3)], reference compound] | – | – | 3.6 µM and 3.57 µM | 18.9 ± 1.3 | 3.32 ± 0.1
[Au(mba)(PPh3)] [reference compound] | – | – | 2.4 µM and 2.36 µM | 5.52 ± 0.36 | 3.51 ± 0.16
